# According to patent US8608842B2, “Infrared absorbing composition, infrared absorbing ink, recorded article, image recording method, and image detecting method” (FUJIFILM Corporation, priority 2010, dated 2013):
# Read-outs that look alike come from different tables or passages of the source.
# Legend:
# Type in all cases: physicochemical
# [1] = Solubility of IR coloring material in toluene at 25° C.
# Method: Specifics are as follows.
# First, a tetrahydrofuran (THF) solution prepared by adding the IR coloring material to TI-IF is measured by a spectrophotometer and a calibration curve is constructed. Next, a liquid is prepared by adding the IR coloring material to toluene to the level that there is a part of the coloring material left undissolved. The resulting liquid is subjected to ultrasonication for 10 minutes while being maintained at 25° C., and allowed to stand overnight at 25° C. The THF solution obtained after the standing is filtered using a 0.2 μm filter. The filtrate is diluted so that it falls within the linear range of the calibration curve, the absorbance is measured, and quantification is made using the calibration curve.
# The solubility shown in Table 1 was measured according to the method described below. Specifics are as follows.
# First, the THF solution prepared by adding the IR coloring material to tetrahydrofuran (THF) was measured by a spectrophotometer, and the calibration curve was established. Next, a liquid was prepared by adding the IR coloring material to toluene to the level that there is a part of coloring material left undissolved. The resulting liquid was subjected to ultrasonication for 10 minutes while being kept at 25° C., and allowed to stand overnight at 25° C. The THF solution obtained after the standing was filtered using a 0.2 μm filter. The filtrate was diluted so that it falls within the linear range of the calibration curve, and the absorbance was measured. Based on the measured value, the solubility was quantified using the calibration curve.
# [2] = Ultraviolet curable ink of Example 4: reflected light of mark for copy protection, before and after xenon irradiation; conditions: xenon light of 70,000 lux, 72 hours; variation compared to the value before irradiation
# Method: By mixing the components of the composition shown below, an ultraviolet curable ink having an infrared absorbing property was prepared.
# By using the ultraviolet curable ink thus obtained, a mark for copy protection was printed on the same base paper as that used in Example 1 by Gravure printing. On top of the printed mark for copy protection, each of the three kinds of a process ink (FDOL Yellow, FDOL Magenta, and FDOL Cyan, trade names, manufactured by TOYO INK MFG. CO., LTD.) was applied as a layer by Gravure printing, or a mixture ink in which the three kinds of a process ink are mixed was applied as a layer by Gravure printing to hide the mark for copy protection, thus obtaining a printed article.
# The mark for copy protection that is hidden by the process ink was irradiated with infrared light using a linear sensor (trade name: TCD1500C, manufactured by Toshiba) in which the infrared cut-off filter of linear sensor was replaced with an infrared transmitting filter (trade name: IR83, manufactured by Hoya) as a detection device, and the reflected light was detected simultaneously.
# The reflection light intensity in the area of the mark for copy protection at the time of detecting the mark was divided by the reflection light intensity of the area outside the mark for copy protection. The resulting value of the comparative infrared absorbing agent A was set to 1, and a ratio of the resulting value with respect to the resulting value of the comparative infrared absorbing agent A was calculated for each compound.
# In addition, the obtained printed article was irradiated continuously with xenon light of 70,000 lux for 72 hours by using a Xenon lamp. After the irradiation, similar to above, the reflection light intensity of the area of the mark for copy protection was divided by the reflection light intensity of the area outside the mark for copy protection, and the variation ratio [%] compared to the value before the irradiation was calculated to use it as an index for evaluation of light resistance.
# [3] = Bar code pattern reading (PCS) of printed article before and after xenon light irradiation (light resistance); conditions: xenon light of 70,000 lux, 200 hours
# Method: By mixing the components of the composition shown below, the infrared absorbing printing ink (1) was prepared.
# By using each of the infrared absorbing printing ink obtained above, a bar code pattern was formed on a regular paper (trade name: MP-120, manufactured by PLUS Corporation), i.e., a base paper, by Gravure printing.
# Subsequently, on the formed bar code pattern, another bar code pattern was additionally formed by using the infrared absorbing ink (2) having the composition shown below.
# Next, on top of the bar code patterns formed by disposing two layers, three kinds of process inks having infrared transmittance (FDOL Yellow, FDOL Magenta, and FDOL Cyan, manufactured by TOYO INK MFG. CO., LTD. (trade names, manufactured by TOYO INK MFG. CO., LTD.) were further applied by Gravure printing to form a colored layer made of three visible colors (cyan, magenta, and yellow). As a result, a printed article having a bar code pattern disposed inside the matter was produced.
# Two kinds of semiconductor laser beam having wavelengths of 830 nm and 905 nm respectively were irradiated onto the thus obtained printed article, and the detection was made by using a filter which cuts off the emission light having wavelength of 950 nm or less. As a result, it was possible to detect the pattern formed by the infrared absorbing ink.
# Subsequently, xenon light of 70,000 lux was irradiated continuously for 200 hours onto the printed article by using a xenon lamp. After that, the reading state of the bar code pattern after the irradiation was evaluated. For the evaluation, PCS (print•contrast•signal) of 0.6 or more was evaluated as “good,” and PCS (print•contrast•signal) of less than 0.6 was evaluated as “bad.” The evaluation results are shown in Table 2 below.
# The printed article was prepared in the same manner as Example 1 except that the solvent (a mixture solvent of toluene and methyl isobutyl ketone) in the composition of the infrared absorbing ink (1) and (2) is replaced with n-octane (SP value: 7.6), butyl acetate (SP value: 8.5), or isopropyl alcohol (IPA; SP values: 11.5), and evaluated.
# The comparative printed article was prepared in the same manner as Example 1 except that the solvent (a mixture solvent of toluene and methyl isobutyl ketone) in the composition of the infrared absorbing ink (1) and (2) is replaced with n-pentane (SP value: 7.0; Example 2) or ethanol (SP value: 12.7; Example 3), and evaluated.
# [4] = Example 2, ink solvent n-pentane (SP value: 7.0)
# [5] = Example 3, ink solvent ethanol (SP value: 12.7)
# [6] = ink solvent IPA (SP value: 11.5)
# [7] = ink solvent butyl acetate (SP value: 8.5)
# [8] = ink solvent n-octane (SP value: 7.6)
# [9] = ink solvent toluene/methyl isobutyl ketone = 70/30
Molecule,"Solubility [mg/ml] Solvent: toluene ([1]; toluene, 25° C.)",Variation amount after irradiation [%] [2],"Reading after irradiation [3, 4]","Reading after irradiation [3, 5]","Reading after irradiation [3, 6]","Reading after irradiation [3, 7]","Reading after irradiation [3, 8]","Reading after irradiation [3, 9]",Solubility [mg/ml] Solvent: toluene [1]
Nc1ccccc1Sc1c2c(c(Sc3ccccc3N)c3c1C1=Nc4c5c(Sc6ccccc6N)c6c(c(Sc7ccccc7N)c5c5[n]4[Cu][n]4c(c7c(Sc8ccccc8N)c8c(c(Sc9ccccc9N)c7c4=NC4=NC(=N5)c5c(Sc7ccccc7N)c7c(c(Sc9ccccc9N)c54)NC4C=CC=CC4S7)SC4C=CC=CC4N8)=NC3=N1)NC1C=CC=CC1S6)SC1C=CC=CC1N2 (stereo not shown) [Compound 69],12 mg/mL,4%,Bad (PCS (print•contrast•signal) of less than 0.6 was evaluated as “bad.”),Bad (PCS (print•contrast•signal) of less than 0.6 was evaluated as “bad.”),"Good (PCS (print•contrast•signal) of 0.6 or more was evaluated as “good,”)","Good (PCS (print•contrast•signal) of 0.6 or more was evaluated as “good,”)","Good (PCS (print•contrast•signal) of 0.6 or more was evaluated as “good,”)","Good (PCS (print•contrast•signal) of 0.6 or more was evaluated as “good,”)",
"N,N,N′,N′-tetrakis(p-di-n-butylaminophenyl)-p-phenylene diaminium perchlorate salt [reference compound]",32 mg/mL,16%,,,,,,Bad (PCS (print•contrast•signal) of less than 0.6 was evaluated as “bad.”),
CCCCCCCCOc1c2c(c(OCCCCCCCC)c3ccccc13)C1=Nc3c4c(OCCCCCCCC)c5ccccc5c(OCCCCCCCC)c4c4[n]3[Cu][n]3c(c5c(OCCCCCCCC)c6ccccc6c(OCCCCCCCC)c5c3=NC3=NC(=N4)c4c3c(OCCCCCCCC)c3ccccc3c4OCCCCCCCC)=NC2=N1 [Compound 25],27 mg/mL,2%,Bad (PCS (print•contrast•signal) of less than 0.6 was evaluated as “bad.”),Bad (PCS (print•contrast•signal) of less than 0.6 was evaluated as “bad.”),"Good (PCS (print•contrast•signal) of 0.6 or more was evaluated as “good,”)","Good (PCS (print•contrast•signal) of 0.6 or more was evaluated as “good,”)","Good (PCS (print•contrast•signal) of 0.6 or more was evaluated as “good,”)","Good (PCS (print•contrast•signal) of 0.6 or more was evaluated as “good,”)",
CCCCCCCCOc1c2c(c(OCCCCCCCC)c3ccccc13)C1=Nc3c4c(OCCCCCCCC)c5ccccc5c(OCCCCCCCC)c4c4[n]3[Zn][n]3c(c5c(OCCCCCCCC)c6ccccc6c(OCCCCCCCC)c5c3=NC3=NC(=N4)c4c3c(OCCCCCCCC)c3ccccc3c4OCCCCCCCC)=NC2=N1 [Compound 27],,4%,Bad (PCS (print•contrast•signal) of less than 0.6 was evaluated as “bad.”),Bad (PCS (print•contrast•signal) of less than 0.6 was evaluated as “bad.”),"Good (PCS (print•contrast•signal) of 0.6 or more was evaluated as “good,”)","Good (PCS (print•contrast•signal) of 0.6 or more was evaluated as “good,”)","Good (PCS (print•contrast•signal) of 0.6 or more was evaluated as “good,”)","Good (PCS (print•contrast•signal) of 0.6 or more was evaluated as “good,”)",25 mg/mL
Nc1ccccc1Sc1c2c(c(Sc3ccccc3N)c3c1C1=Nc4c5c(Sc6ccccc6N)c6c(c(Sc7ccccc7N)c5c5[n]4[V](=[O])[n]4c(c7c(Sc8ccccc8N)c8c(c(Sc9ccccc9N)c7c4=NC4=NC(=N5)c5c(Sc7ccccc7N)c7c(c(Sc9ccccc9N)c54)NC4C=CC=CC4S7)SC4C=CC=CC4N8)=NC3=N1)NC1C=CC=CC1S6)SC1C=CC=CC1N2 (stereo not shown) [Compound 71],16 mg/mL,3%,Bad (PCS (print•contrast•signal) of less than 0.6 was evaluated as “bad.”),Bad (PCS (print•contrast•signal) of less than 0.6 was evaluated as “bad.”),"Good (PCS (print•contrast•signal) of 0.6 or more was evaluated as “good,”)","Good (PCS (print•contrast•signal) of 0.6 or more was evaluated as “good,”)","Good (PCS (print•contrast•signal) of 0.6 or more was evaluated as “good,”)","Good (PCS (print•contrast•signal) of 0.6 or more was evaluated as “good,”)",
CCCCCCCCN1/C(=C/C=C/C=C/C=C/C2=[N+](CCCCCCCC)c3ccc4ccccc4c3C2(C)C)C(C)(C)c2c1ccc1ccccc21.Cc1ccc(S(=O)(=O)[O-])cc1 [reference compound],43 mg/mL,21%,,,,,,Bad (PCS (print•contrast•signal) of less than 0.6 was evaluated as “bad.”),
CCCCOc1c2c(c(OCCCC)c3ccccc13)C1=Nc3c4c(OCCCC)c5ccccc5c(OCCCC)c4c4[n]3[Cu][n]3c(c5c(OCCCC)c6ccccc6c(OCCCC)c5c3=NC3=NC(=N4)c4c3c(OCCCC)c3ccccc3c4OCCCC)=NC2=N1 [Compound 24],16 mg/mL,3%,Bad (PCS (print•contrast•signal) of less than 0.6 was evaluated as “bad.”),Bad (PCS (print•contrast•signal) of less than 0.6 was evaluated as “bad.”),"Good (PCS (print•contrast•signal) of 0.6 or more was evaluated as “good,”)","Good (PCS (print•contrast•signal) of 0.6 or more was evaluated as “good,”)","Good (PCS (print•contrast•signal) of 0.6 or more was evaluated as “good,”)","Good (PCS (print•contrast•signal) of 0.6 or more was evaluated as “good,”)",
